# From ChEMBL document CHEMBL5120864, “Targeting Enhancer of Zeste Homolog 2 for the Treatment of Hematological Malignancies and Solid Tumors: Candidate Structure-Activity Relationships Insights and Evolution Prospects” (J Med Chem, 2022)
# Legend:
# [1] = biological target: T1, Histone-lysine N-methyltransferase EZH2 (Homo sapiens, UniProt Q15910)
# SU-DHL-6 [2] = experiment: cells; format: functional, cell-based; conditions: Homo sapiens
# [3] = biological target: T1, Histone-lysine N-methyltransferase EZH2; remark: listed apart in the source
# [4] = biological target: Histone-lysine N-methyltransferase EZH2 (Homo sapiens, UniProt Q15910, Y641F)
# Histone-lysine N-methyltransferase EZH2 (Homo sapiens, UniProt Q15910, Y641F), sequence (Q15910 whole entry Y641F): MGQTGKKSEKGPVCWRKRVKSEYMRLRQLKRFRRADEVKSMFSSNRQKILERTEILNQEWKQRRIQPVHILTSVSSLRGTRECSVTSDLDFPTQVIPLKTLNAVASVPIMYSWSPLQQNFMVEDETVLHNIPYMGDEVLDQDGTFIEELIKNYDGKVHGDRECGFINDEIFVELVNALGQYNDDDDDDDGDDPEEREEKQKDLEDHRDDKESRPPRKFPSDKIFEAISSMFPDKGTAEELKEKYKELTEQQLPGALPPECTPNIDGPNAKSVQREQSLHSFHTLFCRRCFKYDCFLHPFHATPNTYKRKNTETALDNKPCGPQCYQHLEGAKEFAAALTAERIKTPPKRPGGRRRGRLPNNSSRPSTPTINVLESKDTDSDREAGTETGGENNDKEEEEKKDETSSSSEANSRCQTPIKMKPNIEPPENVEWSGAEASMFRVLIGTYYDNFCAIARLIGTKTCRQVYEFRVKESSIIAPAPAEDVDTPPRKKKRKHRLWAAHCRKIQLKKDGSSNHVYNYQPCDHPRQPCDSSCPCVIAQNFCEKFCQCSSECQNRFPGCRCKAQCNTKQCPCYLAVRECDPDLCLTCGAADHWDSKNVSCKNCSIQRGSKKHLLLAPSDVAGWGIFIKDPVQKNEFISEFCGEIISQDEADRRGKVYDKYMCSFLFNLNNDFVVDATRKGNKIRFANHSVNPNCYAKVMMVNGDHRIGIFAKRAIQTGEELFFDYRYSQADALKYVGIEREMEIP
# [5] = biological target: T1, Histone-lysine N-methyltransferase EZH2; remark: listed apart in the source
# WSUDLCL2 = experiment: cells; format: functional, cell-based; conditions: Homo sapiens
# [6] = biological target: Histone-lysine N-methyltransferase EZH2 (Homo sapiens, UniProt Q15910, Y641N)
# Histone-lysine N-methyltransferase EZH2 (Homo sapiens, UniProt Q15910, Y641N), sequence (Q15910 whole entry Y641N): as the sequence (Q15910 whole entry Y641F) above, with F641N counted along it
# KARPAS-422 [7] = experiment: cells; format: functional; conditions: Homo sapiens
# Pfeiffer [8] = experiment: cells; format: functional, cell-based; conditions: Homo sapiens
# KARPAS-422 [9] = experiment: cells; format: functional, cell-based; conditions: Homo sapiens
# HeLa = experiment: cells; format: functional, cell-based; conditions: Homo sapiens
# [10] = biological target: T2, Protein cereblon/Histone-lysine N-methyltransferase EZH2 (Homo sapiens, UniProt Q15910+Q96SW2); format: cell-based, OCILY7
# T2 sequence (Q15910 whole entry): as the sequence (Q15910 whole entry Y641F) above, with F641Y counted along it
# T2 sequence (Q96SW2 whole entry): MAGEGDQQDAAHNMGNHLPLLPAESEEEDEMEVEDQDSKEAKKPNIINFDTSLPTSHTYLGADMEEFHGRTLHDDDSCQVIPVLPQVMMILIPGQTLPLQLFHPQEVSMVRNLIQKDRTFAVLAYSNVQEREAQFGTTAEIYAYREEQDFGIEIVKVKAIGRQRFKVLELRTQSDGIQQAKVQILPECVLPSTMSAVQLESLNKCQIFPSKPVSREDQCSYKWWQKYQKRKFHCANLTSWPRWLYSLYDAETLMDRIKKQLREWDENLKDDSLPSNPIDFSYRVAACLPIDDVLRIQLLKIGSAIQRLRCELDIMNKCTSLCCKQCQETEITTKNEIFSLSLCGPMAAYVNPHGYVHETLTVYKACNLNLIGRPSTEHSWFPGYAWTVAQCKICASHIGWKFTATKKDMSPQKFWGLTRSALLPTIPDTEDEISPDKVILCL
# [11] = biological target: T2, Protein cereblon/Histone-lysine N-methyltransferase EZH2; format: cell-based, DOHH-2
# [12] = biological target: T1, Histone-lysine N-methyltransferase EZH2; remark: listed apart in the source
# MDA-MB-231 = experiment: cells; format: functional, cell-based; conditions: Homo sapiens, MDA-MB-231, 72 h
# HepG2 = experiment: cells; format: functional, cell-based; conditions: Homo sapiens, HepG2, 24 h
# PC-3 = experiment: cells; format: functional, cell-based; conditions: Homo sapiens, PC-3, 24 h
# MCF7 [13] = experiment: cells; format: functional, cell-based; conditions: Homo sapiens, MCF7, 24 h
# cells = conditions: Homo sapiens, MDA-MB-23
# MDA-MB-468 = experiment: cells; conditions: Homo sapiens
# MCF7 [14] = experiment: cells; conditions: Homo sapiens
# Pfeiffer [15] = experiment: cells; format: functional, cell-based; conditions: Homo sapiens; remark: listed apart in the source
# SU-DHL-6 [16] = experiment: cells; format: functional, cell-based; conditions: Homo sapiens; remark: listed apart in the source
# T1 sequence (Q15910 whole entry): as the sequence (Q15910 whole entry Y641F) above, with F641Y counted along it
structure (smiles),measurement,setting,value
C=CC(=O)Nc1nn(C(C)c2ccccc2)c(C)c1C(=O)NCc1c(C)cc(C)[nH]c1=O (stereo not drawn),IC50,[1],64 nM
[2H]C([2H])([2H])Sc1cc(C)[nH]c(=O)c1CNC(=O)c1c(C)n([C@H](C)C2CCC(OC)CC2)c2ccc(-c3cnn(C)c3)cc12 (stereo partly drawn),IC50,[1],0.4 nM
same,IC50,SU-DHL-6 [2],71.1 nM
Cc1cc(-c2ccc(N3CCN(C)CC3)nc2)c2ccc(C(=O)NCc3c(OC(C)C)cc(C)[nH]c3=O)c(C)c2n1,IC50,[3],1.29 nM
same,IC50,[4],13 nM
CCN(c1cc(-c2ccc(CN3CCOCC3)cc2)cc(C(=O)NCC2C(=O)NC(C)c3cccc(F)c32)c1C)C1CCOCC1 (stereo not drawn),IC50,[5],500 nM
COC1CN([C@H]2CC[C@H]([C@@H](C)c3sc4c(c3C)C(=O)N(Cc3c(C)cc(C)[nH]c3=O)CCC4)CC2)C1,IC50,[3],0.0097 nM
same,IC50,[5],2.65 nM
same,IC50,[4],0.92 nM
CCN(c1cc(C#CCN2CCOCC2)cc(C(=O)NCc2c(C)cc(C)[nH]c2=O)c1C)[C@H]1CC[C@H](N(C)CCOC)CC1,IC50,WSUDLCL2,385 nM
COc1cc(C)[nH]c(=O)c1CNC(=O)c1c(C)n([C@H](C)C2CCN(CC(C)(F)F)CC2)c2ccccc12,IC50,[3],< 1 nM
same,IC50,[4],< 1 nM
C=CCC1(S(=O)(=O)N2CC(C)c3c(C(=O)NCc4c(C)cc(C)[nH]c4=O)cc(-c4ccc(N5CCN(C)CC5)nc4)cc32)CC1 (stereo not drawn),IC50,[6],1530 nM
same,IC50,[4],1530 nM
CCN(c1cc(Br)cc(C(=O)NCc2c[nH]c(C)cc2=O)c1C)[C@H]1CC[C@H](N(C)C)CC1,IC50,[1],40 nM
CCN(c1cc(Cl)cc2c1C/C=C/CCc1cc(C)[nH]c(=O)c1CNC2=O)C1CCC(F)(F)CC1,IC50,[1],16 nM
C=CC(=O)Nc1nn(Cc2ccc(-c3ccccc3)cc2)c(C)c1C(=O)NCc1c(C)cc(C)[nH]c1=O,IC50,[1],109 nM
Cc1cc(C)c(CNC(=O)c2cc(Br)c3c(c2C)O[C@@](C)([C@H]2CC[C@H](N(C)C)CC2)O3)c(=O)[nH]1,GI50,KARPAS-422 [7],4 nM
Cc1cc(C)c(CNC(=O)c2cc(-c3ccc(CN4CCN(C)CC4)cc3)cc3c2OCCN3C2CCCCC2)c(=O)[nH]1,IC50,Pfeiffer [8],4210 nM
C[C@H](C(=O)NC1COC1)c1cnc(NC[C@H]2CC[C@H](Nc3ccc4ccnc(Cl)c4n3)CC2)nc1,IC50,KARPAS-422 [9],0.3 nM
C=CCC1(S(=O)(=O)n2nc(C)c3c(C(=O)NCc4c(C)cc(C)[nH]c4=O)cc(-c4ccc(N5CCN(C)CC5)nc4)cc32)CC1,IC50,[6],2810 nM
same,IC50,[4],585 nM
CSc1cc(C)[nH]c(=O)c1CNC(=O)c1cc(Cl)c2c(c1C)O[C@@](C)([C@H]1CC[C@H](N(C)C)CC1)O2,EC50,HeLa,0.51 nM
same,GI50,KARPAS-422 [7],4 nM
CCc1c(C(=O)NCc2c(C)cc(C)[nH]c2=O)cc2c(cnn2C)c1N(CC)[C@H]1CC[C@H](N2CC(OC)C2)CC1,IC50,Pfeiffer [8],76 nM
CCN(c1cc(C#CC2CCN(C)CC2)cc(C(=O)NCc2c(C)cc(C)[nH]c2=O)c1C)C1CCOCC1,IC50,[4],8.4 nM
CCN(c1cc(-c2ccc(CN3CCOCC3)cc2)cc(C(=O)NCc2c3c(c(C)[nH]c2=O)CCCCCC3)c1C)C1CCOCC1,IC50,Pfeiffer [8],21000 nM
same,IC50,SU-DHL-6 [2],> 30000 nM
CCCc1cc(C)n(C)c(=O)c1CN(C)C(=O)c1cc(-c2ccc(N3CCN(C(C)C)CC3)nc2)cc2c1CNN2C(C)C,IC50,[1],13000 nM
Cc1cc(C)c(CNC(=O)c2cc(-c3ccc(N4CCN(CCOCCC(=O)Nc5cccc6c5C(=O)N(C5CCC(=O)NC5=O)C6=O)CC4)nc3)c3c(cnn3C(C)C)c2)c(=O)[nH]1 (stereo not drawn),IC50,[1],7 nM
C=CC(=O)Nc1nn(Cc2ccccc2)c(C)c1C(=O)NCc1c(C)cc(C)[nH]c1=O,IC50,[1],5240 nM
CCN(c1cc(-c2ccc(CN3CCN(C(=O)CCCCCNc4cccc5c4C(=O)N(C4CCC(=O)NC4=O)C5=O)CC3)cc2)cc(C(=O)NCc2c(C)cc(C)[nH]c2=O)c1C)C1CCOCC1 (stereo not drawn),IC50,[10],100 nM
same,IC50,[11],100 nM
Cc1cc(C)c(CNC(=O)c2cnn(-c3ccccc3)c2)c(=O)[nH]1,IC50,[12],> 400000 nM
COc1cc2nc(N3CCCN(C)CC3)nc(NC3CCN(Cc4ccccc4)CC3)c2cc1OC,IC50,MDA-MB-231,9600 nM
CSc1cc(C)[nH]c(=O)c1CN1CCc2c(Cl)c3c(c(C)c2C1=O)O[C@@](C)([C@H]1CC[C@H](N(C)C)CC1)O3,EC50,HeLa,0.849 nM
same,GI50,KARPAS-422 [7],5.7 nM
CCCc1cc(C)[nH]c(=O)c1CNC(=O)c1cc(-c2ccc(N3CCNCC3)nc2)cc2c([C@H](C)CC)ncn12,IC50,[3],76.1 nM
same,IC50,[4],8.13 nM
CCN(c1cc(C(=O)NCc2c(OC)cc(C)[nH]c2=O)nc2c(-c3ccnc(NC)c3)cnn12)C1CCN(CC(F)(F)F)CC1,IC50,[4],≤ 100 nM
O=C1CCSC(c2ccccc2Cl)N1Nc1nc2ccccc2[nH]1 (stereo not drawn),IC50,HepG2,13600 nM
same,IC50,PC-3,9410 nM
same,IC50,MCF7 [13],20300 nM
O=C1CCSC(c2ccc([N+](=O)[O-])cc2)N1Nc1nc2ccccc2[nH]1 (stereo not drawn),IC50,HepG2,55800 nM
same,IC50,PC-3,64600 nM
same,IC50,MCF7 [13],47600 nM
CCN(c1cc(C(=O)NCc2c(OC)cc(C)[nH]c2=O)nc2c(-c3ccnc(N(C)C)c3)cnn12)C1CCOCC1,IC50,[4],≤ 100 nM
COc1cc(C)[nH]c(=O)c1CN1CCn2ccc3cc(-c4c(C)noc4C)c(Cl)c(c32)C1=O,IC50,KARPAS-422 [9],52 nM
same,IC50,WSUDLCL2,3.8 nM
CCN(c1cc(-c2cnc(N3CCN(C)CC3)nc2)cc2c(NCc3c(C)cc(C)[nH]c3=O)nccc12)[C@H]1CC[C@H](N(C)C)CC1,IC50,Pfeiffer [8],249 nM
same,IC50,[4],< 5 nM
[2H]C([2H])(NC(=O)c1c(C)n([C@H](C)C2CCC(OC)CC2)c2ccccc12)c1c(SC)cc(C)[nH]c1=O (stereo partly drawn),IC50,[1],0.54 nM
same,IC50,SU-DHL-6 [2],9.94 nM
O=C(c1cc(Cc2n[nH]c(=O)c3ccccc23)ccc1F)N1CCN(C(=O)C2CC2)CC1 [OLAPARIB],IC50,cells,36900 nM
same,IC50,MDA-MB-468,35600 nM
same,IC50,MCF7 [14],> 50000 nM
CCN(c1cc(-c2ccc(CN3CCOCC3)cc2)cc(C(=O)NCc2c3c(c(C)[nH]c2=O)CCCCC3)c1C)C1CCOCC1,IC50,Pfeiffer [8],27000 nM
same,IC50,SU-DHL-6 [2],> 30000 nM
COc1ccc(C2SCCC(=O)N2Nc2nc3cc(Cl)c(Cl)cc3[nH]2)cc1 (stereo not drawn),IC50,HepG2,68600 nM
same,IC50,PC-3,71800 nM
same,IC50,MCF7 [13],76800 nM
CCC(C)n1cc(C)c2c(C(=O)NCC3=C(O)NN(CC)C3C)cc(-c3ccc(N4CCNCC4)nc3)cc21 (stereo not drawn),IC50,[3],230 nM
same,IC50,[4],1470 nM
Cc1cc2c(c(=O)[nH]1)CNC(=O)c1cc(Cl)cc3c1c(cn3C(C)C)/C=C/CC2,IC50,[1],40 nM
C=CCC1(S(=O)(=O)N2CCc3c(C(=O)NCc4c(C)cc(C)[nH]c4=O)cc(-c4ccc(N5CCN(C)CC5)nc4)cc32)CC1,IC50,[6],2590 nM
same,IC50,[4],2590 nM
CCN(c1cc(Cl)cc(C(=O)NCc2c[nH]c(C)cc2=O)c1C)[C@H]1CC[C@H](N(C)C)CC1,IC50,[1],3 nM
Cc1cc(C)c(CNC(=O)c2cc3c(c(-c4ccc(N5CCNCC5)cc4)c2)OC(C)(C)C3)c(=O)[nH]1,IC50,[1],< 500 nM
CC1=CCOc2c(Br)cc(C(=O)NCc3c(C)cc(C)[nH]c3=O)cc2C1,IC50,[1],> 1000 nM
CCN(c1cc(-c2ccc(CN3CCOCC3)cc2)cc(C(=O)NCc2c(Cl)cc(C)c[n+]2[O-])c1C)C1CCOCC1,IC50,[1],< 100 nM
Cc1cc(Cl)c(CNC(=O)c2cc(Cl)c3c(c2C)OC(C)(C2CCC(N4CC(OC5CC5)C4)CC2)O3)c(=O)[nH]1 (stereo not drawn),EC50,HeLa,0.52 nM
same,GI50,KARPAS-422 [7],5 nM
Cc1cc(C)c(CNC(=O)c2cnn(C(C)C)c2C)c(=O)[nH]1,IC50,[12],343000 nM
Cc1cc(C)c(CNC(=O)c2cc(Cl)c3c(c2C)O[C@@](C)([C@H]2CC[C@H](N(C)C)CC2)O3)c(=O)[nH]1 [VALEMETOSTAT],GI50,KARPAS-422 [7],4.8 nM
CCN(c1cc(-c2ccc(CN3CCOCC3)cc2)cc(C(=O)NCc2c3c(c(C)[nH]c2=O)CCCC3)c1C)C1CCOCC1,IC50,Pfeiffer [8],19500 nM
same,IC50,SU-DHL-6 [2],20000 nM
CCN(c1cc(-c2ccc(CN3CCN(C(=O)CCCCCCCNc4cccc5c4C(=O)N(C4CCC(=O)NC4=O)C5=O)CC3)cc2)cc(C(=O)NCc2c(C)cc(C)[nH]c2=O)c1C)C1CCOCC1 (stereo not drawn),IC50,[10],60 nM
same,IC50,[11],100 nM
CCN(c1cc(-c2ccc(CN3CCN(C)CC3)cc2)cc(C(=O)NCc2c3c(c(C)[nH]c2=O)CCCC3)c1C)C1CCOCC1,IC50,Pfeiffer [15],12.5 nM
same,IC50,SU-DHL-6 [16],16000 nM
Cc1cc(C)c(CN2CCc3c(Br)c4c(c(C)c3C2=O)OC(C)([C@H]2CC[C@H](N(C)C)CC2)O4)c(=O)[nH]1 (stereo partly drawn),GI50,Pfeiffer [8],0.21 nM
same,GI50,KARPAS-422 [7],1.2 nM
CCCc1cc(C)[nH]c(=O)c1CNC(=O)c1cc(-c2ccc(N3CCNCC3)cc2)cc2c1ccc(=O)n2C(CC)CC,IC50,[3],11 nM
same,IC50,[4],9 nM
C=CCC1(S(=O)(=O)n2cc(C)c3c(C(=O)NCc4c(OC)cc(C)[nH]c4=O)cc(-c4ccc(N5CCN(C)CC5)nc4)cc32)CC1,IC50,[6],27000 nM
same,IC50,[4],5 nM
CCCc1cc(C)[nH]c(=O)c1CNC(=O)c1cc(-c2ccc(N3CCOCC3)nc2)c2ccn(C(C)C)c2c1C,IC50,[1],0.01 nM
COc1ccc(C2SCCC(=O)N2Nc2nc3cc(C)c(C)cc3[nH]2)cc1 (stereo not drawn),IC50,HepG2,68300 nM
same,IC50,PC-3,66300 nM
same,IC50,MCF7 [13],59700 nM
O=C1CCSC(c2ccc(Cl)cc2)N1Nc1nc2ccccc2[nH]1 (stereo not drawn),IC50,HepG2,53300 nM
same,IC50,PC-3,66900 nM
same,IC50,MCF7 [13],74300 nM
